Source: PMC8053501 (Diabetes, Metabolic Syndrome and Obesity: Targets and …, 2021)
“Also recorded” adds a separate entry of the source. Like-named read-outs stand apart in the source and are kept apart here.

What was measured:
[1] = system: diabetes mellitus patients; test: Acute kidney injury; assay type: in vivo, human; conditions: for Association with AKI, Unadjusted (95% CI) / Association with AKI, Adjusted (95% CI): metformin as reference; for Association with AKI, Adjusted (95% CI): multivariate; for Association with AKI compared to control drug metformin, in words: multivariate analysis; for Events During the 90 days (AKI): primary endpoint, first 90 days, patients above 55 years; for Events at secondary end (AKI): secondary endpoint, after 90 days of hospital admission; for Total Percent (incidence rate of AKI at the end of the study): share of the 4966 total outcomes; for Total endpoint (AKI events): primary plus secondary endpoint
[2] = for Drug concentration, time course: normal mice, oral gavage, 3mg/kg
in vivo = conditions: male, ICR, mouse, po; for Cmax / half-life: oral gavage; for half-life: t1/2, mouse
[3] = Endpoint Diagnosis with 1047 Outcome
[4] = Secondary Diagnosis with 3919 Outcomes

## CC(C)Cc1ccc(C(C)C(=O)O)cc1 (stereo not shown) [Ibuprofen, ibuprofen]
[1]; [3]
  Association with AKI, Unadjusted (95% CI): 3.14 (2.87–3.74)
  Association with AKI, Adjusted (95% CI): 2.41 (1.91–2.54)
[1]; [4]
  Association with AKI, Unadjusted (95% CI): 2.68 (2.21–3.03)
  Association with AKI, Adjusted (95% CI): 2.36 (1.84–2.93)
[1]
  Association with AKI compared to control drug metformin, in words: higher risk for AKI
  Events During the 90 days (AKI): 124
  Events at secondary end (AKI): 433
  Total Percent (incidence rate of AKI at the end of the study): 11.22%
[1]; listed as ibuprofen
  Association with AKI compared to control drug metformin, in words: increased rate of AKI
[2]; Kidney, 0h
  Drug concentration, time course: 0
[2]; Kidney, 6h
  Drug concentration, time course: 16,500
[2]; Kidney, 9h
  Drug concentration, time course: 9500
[2]; Kidney, 12h
  Drug concentration, time course: 3500
[2]; Kidney, 15h
  Drug concentration, time course: 1000
[2]; Kidney, 18h
  Drug concentration, time course: 200
[2]; Kidney, 21h
  Drug concentration, time course: 100
[2]; Kidney, 24h
  Drug concentration, time course: 0
[2]; Liver, 0h
  Drug concentration, time course: 0
[2]; Liver, 3h
  Drug concentration, time course: 9500
[2]; Liver, 6h
  Drug concentration, time course: 7600
[2]; Liver, 9h
  Drug concentration, time course: 1800
[2]; Liver, 12h
  Drug concentration, time course: 600
[2]; Liver, 15h
  Drug concentration, time course: 150
[2]; Liver, 18h
  Drug concentration, time course: 0
[2]; Liver, 21h
  Drug concentration, time course: 0
[2]; Liver, 24h
  Drug concentration, time course: 0
[2]; Plasma, 0h
  Drug concentration, time course: 0
[2]; Plasma, 3h
  Drug concentration, time course: 600
[2]; Plasma, 6h
  Drug concentration, time course: 400
[2]; Plasma, 9h
  Drug concentration, time course: 140
[2]; Plasma, 12h
  Drug concentration, time course: 0
[2]; Plasma, 15h
  Drug concentration, time course: 0
[2]; Plasma, 18h
  Drug concentration, time course: 0
[2]; Plasma, 21h
  Drug concentration, time course: 0
[2]; Plasma, 24h
  Drug concentration, time course: 0
In vivo
  Tmax: 1 h
In vivo; 3 mg/kg
  Tmax: 1 h

## COc1ccc2c(c1)c(CC(=O)O)c(C)n2C(=O)c1ccc(Cl)cc1 [Indomethacin, indomethacin]
[1]; [3]
  Association with AKI, Unadjusted (95% CI): 2.81 (2.32–2.94)
  Association with AKI, Adjusted (95% CI): 2.29 (2.05–2.65)
[1]; [4]
  Association with AKI, Unadjusted (95% CI): 2.45(2.09–2.54)
  Association with AKI, Adjusted (95% CI): 2.63 (2.41–2.72)
[1]
  Association with AKI compared to control drug metformin, in words: increased rate of AKI; also recorded: higher risk for AKI
  Events During the 90 days (AKI): 106
  Total endpoint (AKI events): 497
  Events at secondary end (AKI): 391
  Total Percent (incidence rate of AKI at the end of the study): 10.01%
[2]; mouse, tissue not separated
  Tmax determined from the drug concentration in kidney and plasma (and liver): 1 h
[2]; Kidney, 0h
  Drug concentration, time course: 0
[2]; Kidney, 3h
  Drug concentration, time course: 8240
[2]; Kidney, 6h
  Drug concentration, time course: 5200
[2]; Kidney, 9h
  Drug concentration, time course: 3880
[2]; Kidney, 12h
  Drug concentration, time course: 700
[2]; Kidney, 15h
  Drug concentration, time course: 250
[2]; Kidney, 18h
  Drug concentration, time course: 0
[2]; Kidney, 21h
  Drug concentration, time course: 0
[2]; Kidney, 24h
  Drug concentration, time course: 0
[2]; Liver, 0h
  Drug concentration, time course: 0
[2]; Liver, 3h
  Drug concentration, time course: 10,300
[2]; Liver, 6h
  Drug concentration, time course: 8700
[2]; Liver, 9h
  Drug concentration, time course: 5400
[2]; Liver, 12h
  Drug concentration, time course: 1200
[2]; Liver, 15h
  Drug concentration, time course: 150
[2]; Liver, 18h
  Drug concentration, time course: 0
[2]; Liver, 21h
  Drug concentration, time course: 0
[2]; Liver, 24h
  Drug concentration, time course: 0
[2]; Plasma, 0h
  Drug concentration, time course: 0
[2]; Plasma, 3h
  Drug concentration, time course: 300
[2]; Plasma, 6h
  Drug concentration, time course: 100
[2]; Plasma, 9h
  Drug concentration, time course: 50
[2]; Plasma, 12h
  Drug concentration, time course: 0
[2]; Plasma, 15h
  Drug concentration, time course: 0
[2]; Plasma, 18h
  Drug concentration, time course: 0
[2]; Plasma, 21h
  Drug concentration, time course: 0
[2]; Plasma, 24h
  Drug concentration, time course: 0
In vivo; 3 mg/kg
  Tmax: 1 h
In vivo; 3 mg/kg, Kidney
  Cmax: 10300 ng/mL
  half-life: 3.8 h
In vivo; 3 mg/kg, Liver
  Cmax: 9650 ng/mL
  half-life: 3.1 h
In vivo; 3 mg/kg, Plasma
  Cmax: 1170 ng/mL
  half-life: 2.7 h

## OC[C@H]1O[C@@H](c2ccc(F)c(Cc3cc4ccccc4s3)c2)[C@H](O)[C@@H](O)[C@@H]1O [Ipragliflozin, ipragliflozin]
[1]; [3]
  Association with AKI, Unadjusted (95% CI): 0.78 (0.61–1.08)
  Association with AKI, Adjusted (95% CI): 0.86 (0.69–1.31)
[1]; [4]
  Association with AKI, Unadjusted (95% CI): 0.84 (0.69–1.16)
  Association with AKI, Adjusted (95% CI): 0.95 (0.62–1.45)
[1]
  Events During the 90 days (AKI): 58
  Total endpoint (AKI events): 269
  Events at secondary end (AKI): 211
  Total Percent (incidence rate of AKI at the end of the study): 5.42%
[2]; Kidney, 0h
  Drug concentration, time course: 0
[2]; Kidney, 3h
  Drug concentration, time course: 16,700
[2]; Kidney, 6h
  Drug concentration, time course: 14,500
[2]; Kidney, 9h
  Drug concentration, time course: 8000
[2]; Kidney, 12h
  Drug concentration, time course: 4500
[2]; Kidney, 15h
  Drug concentration, time course: 3000
[2]; Kidney, 18h
  Drug concentration, time course: 1500
[2]; Kidney, 21h
  Drug concentration, time course: 1000
[2]; Kidney, 24h
  Drug concentration, time course: 850
[2]; Liver, 0h
  Drug concentration, time course: 0
[2]; Liver, 3h
  Drug concentration, time course: 7500
[2]; Liver, 6h
  Drug concentration, time course: 6000
[2]; Liver, 9h
  Drug concentration, time course: 1200
[2]; Liver, 12h
  Drug concentration, time course: 300
[2]; Liver, 15h
  Drug concentration, time course: 50
[2]; Liver, 18h
  Drug concentration, time course: 0
[2]; Liver, 21h
  Drug concentration, time course: 0
[2]; Liver, 24h
  Drug concentration, time course: 0
[2]; Plasma, 0h
  Drug concentration, time course: 0
[2]; Plasma, 3h
  Drug concentration, time course: 300
[2]; Plasma, 6h
  Drug concentration, time course: 250
[2]; Plasma, 9h
  Drug concentration, time course: 30
[2]; Plasma, 12h
  Drug concentration, time course: 0
[2]; Plasma, 15h
  Drug concentration, time course: 0
[2]; Plasma, 18h
  Drug concentration, time course: 0
[2]; Plasma, 21h
  Drug concentration, time course: 0
[2]; Plasma, 24h
  Drug concentration, time course: 0
In vivo
  Tmax: 0.5 h
In vivo; 3 mg/kg
  Tmax: 0.5 h
In vivo; 3 mg/kg, Kidney
  Cmax: 4140 ng/mL
  half-life: 2.3 h
In vivo; 3 mg/kg, Liver
  Cmax: 3040 ng/mL
  half-life: 1.5 h
In vivo; 3 mg/kg, Plasma
  Cmax: 975 ng/mL
  half-life: 1.6 h
